In the supplement of paper PMC10307832:

What was measured:
Assay in all cases: relative viability (nuclei count vs DMSO), 5 days (fraction); higher = more cells survive
NCI-H2085 = system: NCI-H2085
Summary of the method: (§1)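 Dosing by pin tool came one day after lung cancer cell lines were seeded in 1536-well plates, using either one drug or a fixed anchor-drug dose plus five library-drug doses (not always all listed) in √10 steps. After 5 days, nuclei were counted on 4× images. Relative viability is treated-well nuclei count divided by vehicle-well nuclei count, and values are medians of duplicate plates.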

NCI-H2023 = system: NCI-H2023
Summary of the method: as §1

COR-L23 = system: COR-L23
Summary of the method: as §1

NCI-H1651 = system: NCI-H1651
Summary of the method: as §1

NCI-H520 = system: NCI-H520
Summary of the method: as §1

HCC-827 = system: HCC-827
Summary of the method: as §1

EPLC-272H = system: EPLC-272H
Summary of the method: as §1

NCI-H1563 = system: NCI-H1563
Summary of the method: as §1

LU99A = system: LU99A
Summary of the method: as §1

NCI-H2087 = system: NCI-H2087
Summary of the method: as §1

H3255 = system: H3255
Summary of the method: as §1

NCI-H2405 = system: NCI-H2405
Summary of the method: as §1

NCI-H838 = system: NCI-H838
Summary of the method: as §1

NCI-H1395 = system: NCI-H1395
Summary of the method: as §1

SK-MES-1 = system: SK-MES-1
Summary of the method: as §1

HCC-44 = system: HCC-44
Summary of the method: as §1

NCI-H1944 = system: NCI-H1944
Summary of the method: as §1

NCI-H650 = system: NCI-H650
Summary of the method: as §1

EMC-BAC-2 = system: EMC-BAC-2
Summary of the method: as §1

NCI-H1793 = system: NCI-H1793
Summary of the method: as §1

SMILES: O=c1cc(N2CCOCC2)oc2c(-c3cccc4c3sc3ccccc34)cccc12 + CS(=O)(=O)CCNCc1ccc(-c2ccc3ncnc(Nc4ccc(OCc5cccc(F)c5)c(Cl)c4)c3c2)o1 [Lapatinib] (partner 2 µM)
- relative viability (NCI-H2085; first compound 0.01 µM): 0.796
- relative viability (NCI-H2085; first compound 0.03162 µM): 0.757
- relative viability (NCI-H2085; first compound 0.1 µM): 0.775
- relative viability (NCI-H2085; first compound 0.3162 µM): 0.734
- relative viability (NCI-H2085; first compound 1 µM): 0.751
- relative viability (NCI-H2023; first compound 0.01 µM): 0.88
- relative viability (NCI-H2023; first compound 0.03162 µM): 0.975
- relative viability (NCI-H2023; first compound 0.1 µM): 0.882
- relative viability (NCI-H2023; first compound 0.3162 µM): 0.826
- relative viability (NCI-H2023; first compound 1 µM): 0.887
- relative viability (COR-L23; first compound 0.01 µM): 1.01
- relative viability (COR-L23; first compound 0.03162 µM): 0.823
- relative viability (COR-L23; first compound 0.1 µM): 0.924
- relative viability (COR-L23; first compound 0.3162 µM): 0.843
- relative viability (COR-L23; first compound 1 µM): 1
- relative viability (NCI-H1651; first compound 0.01 µM): 0.746
- relative viability (NCI-H1651; first compound 0.03162 µM): 0.909
- relative viability (NCI-H1651; first compound 0.1 µM): 0.875
- relative viability (NCI-H1651; first compound 0.3162 µM): 0.741
- relative viability (NCI-H1651; first compound 1 µM): 0.878
- relative viability (NCI-H520; first compound 0.01 µM): 0.781
- relative viability (NCI-H520; first compound 0.03162 µM): 0.825
- relative viability (NCI-H520; first compound 0.1 µM): 0.767
- relative viability (NCI-H520; first compound 0.3162 µM): 0.816
- relative viability (NCI-H520; first compound 1 µM): 0.906
- relative viability (HCC-827; first compound 0.01 µM): 0.222
- relative viability (HCC-827; first compound 0.03162 µM): 0.213
- relative viability (HCC-827; first compound 0.1 µM): 0.215
- relative viability (HCC-827; first compound 0.3162 µM): 0.186
- relative viability (HCC-827; first compound 1 µM): 0.256
- relative viability (EPLC-272H; first compound 0.01 µM): 1.15
- relative viability (EPLC-272H; first compound 0.03162 µM): 1.12
- relative viability (EPLC-272H; first compound 0.3162 µM): 0.928
- relative viability (EPLC-272H; first compound 1 µM): 0.825
- relative viability (NCI-H1563; first compound 0.01 µM): 1.27
- relative viability (NCI-H1563; first compound 0.03162 µM): 0.995
- relative viability (NCI-H1563; first compound 0.1 µM): 1.04
- relative viability (NCI-H1563; first compound 0.3162 µM): 0.762
- relative viability (NCI-H1563; first compound 1 µM): 0.782
- relative viability (LU99A; first compound 0.01 µM): 1.11
- relative viability (LU99A; first compound 0.03162 µM): 1.04
- relative viability (LU99A; first compound 0.1 µM): 0.921
- relative viability (LU99A; first compound 0.3162 µM): 1.02
- relative viability (LU99A; first compound 1 µM): 1.07
- relative viability (NCI-H2087; first compound 0.01 µM): 0.847
- relative viability (NCI-H2087; first compound 0.03162 µM): 1.11
- relative viability (NCI-H2087; first compound 0.1 µM): 1.2
- relative viability (NCI-H2087; first compound 0.3162 µM): 0.938
- relative viability (NCI-H2087; first compound 1 µM): 1.17
- relative viability (H3255; first compound 0.01 µM): 0.222
- relative viability (H3255; first compound 0.03162 µM): 0.286
- relative viability (H3255; first compound 0.1 µM): 0.258
- relative viability (H3255; first compound 0.3162 µM): 0.225
- relative viability (H3255; first compound 1 µM): 0.248
- relative viability (NCI-H2405; first compound 0.01 µM): 1.12
- relative viability (NCI-H2405; first compound 0.03162 µM): 1.18
- relative viability (NCI-H2405; first compound 0.1 µM): 1.04
- relative viability (NCI-H2405; first compound 0.3162 µM): 1.2
- relative viability (NCI-H2405; first compound 1 µM): 1.11
- relative viability (NCI-H838; first compound 0.01 µM): 1.08
- relative viability (NCI-H838; first compound 0.03162 µM): 0.915
- relative viability (NCI-H838; first compound 0.1 µM): 0.984
- relative viability (NCI-H838; first compound 0.3162 µM): 0.97
- relative viability (NCI-H838; first compound 1 µM): 0.969
- relative viability (NCI-H1395; first compound 0.01 µM): 0.997
- relative viability (NCI-H1395; first compound 0.03162 µM): 1.18
- relative viability (NCI-H1395; first compound 0.1 µM): 0.826
- relative viability (NCI-H1395; first compound 0.3162 µM): 1.04
- relative viability (NCI-H1395; first compound 1 µM): 0.854
- relative viability (SK-MES-1; first compound 0.01 µM): 0.51
- relative viability (SK-MES-1; first compound 0.03162 µM): 0.53
- relative viability (SK-MES-1; first compound 0.1 µM): 0.487
- relative viability (SK-MES-1; first compound 0.3162 µM): 0.453
- relative viability (SK-MES-1; first compound 1 µM): 0.407
- relative viability (HCC-44; first compound 0.01 µM): 1.01
- relative viability (HCC-44; first compound 0.03162 µM): 0.995
- relative viability (HCC-44; first compound 0.1 µM): 1.11
- relative viability (HCC-44; first compound 0.3162 µM): 0.946
- relative viability (HCC-44; first compound 1 µM): 1.07
- relative viability (NCI-H1944; first compound 0.01 µM): 0.842
- relative viability (NCI-H1944; first compound 0.03162 µM): 0.817
- relative viability (NCI-H1944; first compound 0.1 µM): 1.04
- relative viability (NCI-H1944; first compound 0.3162 µM): 1.01
- relative viability (NCI-H1944; first compound 1 µM): 0.775
- relative viability (NCI-H650; first compound 0.01 µM): 0.769
- relative viability (NCI-H650; first compound 0.03162 µM): 0.973
- relative viability (NCI-H650; first compound 0.3162 µM): 1.17
- relative viability (NCI-H650; first compound 1 µM): 0.77
- relative viability (EMC-BAC-2; first compound 0.01 µM): 0.732
- relative viability (EMC-BAC-2; first compound 0.03162 µM): 0.946
- relative viability (EMC-BAC-2; first compound 0.1 µM): 0.97
- relative viability (EMC-BAC-2; first compound 0.3162 µM): 0.893
- relative viability (EMC-BAC-2; first compound 1 µM): 0.848
- relative viability (NCI-H1793; first compound 0.01 µM): 0.707
- relative viability (NCI-H1793; first compound 0.03162 µM): 0.824
- relative viability (NCI-H1793; first compound 0.1 µM): 0.656
- relative viability (NCI-H1793; first compound 0.3162 µM): 0.499
- relative viability (NCI-H1793; first compound 1 µM): 0.45
